Data set [1] relates to mAb1. The data set can be described thus: mAb1 AAPH stress study; Fab/Fc oxidation by RP-HPLC. The data set is classed as physicochemical, human. The settings on record: antioxidants at 1 mM; for Fab (Trp residue) oxidation of mAb1 after AAPH incubation: 24 hours at 40° C., label mAb1 = no excipient. The text has this: (§1) The fragments were reduced with DTT, and then separated and identified via Liquid Chromatography-Mass Spectrometry (LC-MS). […] Comparison of area integrated under the oxidized and native peaks was used to quantify HC Fab and Fc oxidation. […] By using the papain digest RP-HPLC method in the present study it was possible to investigate Trp residue oxidation by quantifying HC Fab oxidation, and Met residue oxidation by quantifying HC Fc oxidation.
% Fab oxidation and % Fc oxidation were calculated as follows: […]
Antioxidants were added at 1 mM. […] After buffer exchange, each solution was prepared for analysis by reverse-phase HPLC as described above.

A short description of data set [2]: Photosensitivity screening: H2O2 formation by antioxidant candidates upon light exposure (Amplex Ultra Red Assay). Format: physicochemical. How it is done:
As a screening tool, antioxidant candidates were exposed to light for four hours at 250 W/m^2 and the resulting H2O2 formation was quantified by the Amplexassay. Specifically, antioxidants were prepared to 1 mM in 20 mM histidine acetate buffer at pH 5.5. The 1 mM antioxidant solutions were aliquoted into glass vials (2 mL/glass vial) and exposed to four hours of light at 250 W/m^2 in an Atlas SunTest CPS+ Xenon Test Instrument (Chicago, Ill.). Total UV dose was 90 watt-hours/square meter and total visible dose was 0.22 million lux hours over the 4-hour period. Control vials were wrapped in aluminum foil and treated similarly. The amount of hydrogen peroxide generated after exposure to light was measured using the Amplex® Ultra Red Assay (Invitrogen, Carlsbad, Calif.) following the manufacturer's recommended procedure. On addition of horseradish peroxidase (HRP), the dye reacted 1:1 stoichiometrically with H2O2, resulting in the production of fluorescent oxidation product resorufin. In this study, fluorescence readings were obtained using a Spectra Max M2 Micro-plate Reader (Molecular Devices, Sunnyvale, Calif.) with excitation and emission set at 560 nm and 590 nm, respectively. Final H2O2 concentrations were determined using a standard curve ranging from 0 μm to 20 μm. […]

Data set [3] can be described thus: Cyclic voltammetry (CV) screening of oxidation potentials. The data set is classed as physicochemical. The settings on record: for Oxidation Potential (anodic peak): glassy carbon working electrode, 0.2 M lithium perchlorate. How it is done: The oxidation/reduction characteristics of the compounds were investigated. Several compounds, including L-Trp and derivatives, were evaluated for the protection of Trp oxidation in proteins using cyclic voltammetry (CV) and rank ordered based on their oxidation potentials (Table 2). Specifically, the candidate antioxidants were dissolved in deionized water and then added to a 0.2 M lithium perchlorate electrolyte solution. […] Solutions were scanned from −0.10 V to +1.50 V at a scan rate of either 100 or 500 mV/sec. The analytical cell was purged for four minutes with nitrogen before scanning of each antioxidant solution. The input was a linear scan of the potential of a working electrode, and the output was measurement of the resulting current. […] Redox reactions were characterized by sharp increases or decreases in current (peaks). The potential at which an oxidation reaction occurred was referred to as the anodic peak potential (or oxidation potential), and the potential at which a reduction occurred was referred to as is the cathodic peak (or reduction) potential.

In data set [4] the test system is mAb1. As to the kind of experiment: mAb1 light stress study, 16 hours; Fab/Fc oxidation by RP-HPLC. The settings on record: for Fab oxidation increase over the control level (mAb1 Ref Mat): label mAb1 = No Excipient. Format: physicochemical, human. As for the experimental part:
as §1
Antioxidants were added at 1 mM. Glass vials containing these formulations were exposed to 250 W/m^2 light in an Atlas SunTest CPS+ Xenon Test Instrument (Chicago, Ill.). Control vials were wrapped in aluminum foil and treated similarly. After light exposure, solutions were prepared for analysis by reverse-phase HPLC as described above.

The subject of data set [5] is mAb1. As to the kind of experiment: mAb1 Fenton stress study (H2O2 + Fe); Fab/Fc oxidation by RP-HPLC. Format: physicochemical, human. Particulars: 10 ppm H2O2, 0.2 mM Fe(III), 40° C. for 3 hours, no excipient. How it is done: Antioxidants were added at a final concentration of 1 mM. […] After incubation, each reaction was quenched by addition of 100 mM L-Met and then prepared for analysis by reverse-phase HPLC as described above.
The Fenton reaction, using a mixture of H2O2 and Fe ions, generates oxidation through a metal catalyzed, hydroxyl radical reaction (Prousek et al., Pure and Applied Chemistry 79(12):2325-2338 (2007)). This reaction generated Fab, i.e. tryptophan, oxidation in mAb1. The reaction was also carried out in the presence of select antioxidants that were useful against both AAPH and light induced oxidation as reported above. Data related to the antioxidant properties against Fenton mediated reaction were analyzed using the RP-HPLC assay as described above. The Fenton reaction used 10 ppm of H2O2 and 0.2 mM of Fe(III). The reaction was incubated at 40° C. for 3 hours, quenched with 100 mM L-Met and analyzed using RP-HPLC after papain digest. All samples were the average of three separate vials, and mAb1 control (Ref Mat) was one vial with five independent injections on the HPLC. […] In regards to protection against Fc oxidation, the tested excipients (other than salicylic acid) performed slightly better than L-Trp.

Data set [6] has as its system mAb1. As to the kind of experiment: mAb1 light stress, eight hours, with L-Trp and L-Met; Fab/Fc oxidation by papain digest RP-HPLC. Format: physicochemical, human. The settings on record: label mAb1 = No Excipient. How it is done: L-tryptophan (L-Trp), an antioxidant used in protein formulations, has been recently shown to be photosensitive (Igarashi et al., Anal Sci 23(8):943-8 (2007)) and to have the ability to produce H2O2 upon light exposure. […] Control vials were wrapped in aluminum foil and treated similarly. After light exposure, solutions were prepared for analysis by reverse-phase HPLC. […] Following incubation, 900 μL of the solution was combined with 100 μL of 1 M dithiothreitol (DTT) and incubated for another thirty minutes at 37° C. Samples were then run on an Agilent, Inc. 1100/1200 HPLC system (Santa Clara, Calif.) equipped with UV detection at 280 nm in conjunction with a Varian, Inc. Pursuit 3 μm, 2 mm ID×250 mm diphenyl column (Palo Alto, Calif.). Mobile Phase A was 0.1% TFA in water. Mobile Phase B was 0.1% TFA in acetonitrile. The mobile phase gradient increased linearly from 34% B at 0 minutes to 43% B at 50.0 minutes, then to 95% B at 50.1 minutes. The gradient remained at 95% B until 60.1 minutes, and then decreased linearly from 95% B to 34% B between 60.1 and 60.2 minutes. The gradient remained at 34% B until the end of the cycle at 80.2 minutes. The column temperature was 65° C., total flow rate was 0.2 mL/min, and injection volume of each sample was 6 μL. Chromatograms were then integrated for quantification of oxidation.

[7] abbreviates: 1 mM in 20 mM histidine acetate pH 5.5, four hours of light at 250 W/m^2.
Setting [8] is: 16 hours of light at 250 W/m^2, excipient 1 mM.
Setting [9] is: 1 mM, 20 mM L-His-acetate pH 5.5, 4 h light, 0.22 million lux hours.

“Also recorded” adds a separate entry of the source.

With `N[C@@H](Cc1c[nH]c2ccc(O)cc12)C(=O)O` [5-Hydroxy-L-Trp, 5-Hydroxy-Tryptophan], the “Fab (Trp residue) oxidation of mAb1 after AAPH incubation” value (“Fab (Trp residue) oxidation of mAb1” below) in the data set with mAb1 [1] is “about 2%”. The “(H2O2 produced by Compound)/(H2O2 produced by L-Trp)” value in data set [2] (setting [7]) was found to be 0.09. Moreover, the “H2O2 production upon light exposure compared to L-Trp (in words)” value in data set [2] (1 mM, 20 mM L-His-acetate pH 5.5, 4 h light, 0.22 million lux hours, listed as 5-hydroxy-L-tryptophan) was “about one tenth of the H2O2; also recorded: low levels of H2O2 production”. For the same compound, the “Oxidation Potential (anodic peak)” value in data set [3] came out at 0.565 V vs Ag/AgCl. Further, the “Effect on light-induced Fab oxidation (in words)” value in the data set on mAb1 [4] (setting [8]) was “reducing Fab oxidation to near control levels”.

In the case of `Oc1ccc2[nH]ccc2c1` [5-Hydroxyindole, 5-Hydroxy Indole], the “Fab (Trp residue) oxidation of mAb1” value in the data set on mAb1 [1] is listed as “about 2%”. For the same compound, the “(H2O2 produced by Compound)/(H2O2 produced by L-Trp)” value in data set [2] (setting [7]) is listed as −0.08. Also, in data set [2] (setting [9]), the “H2O2 production upon light exposure compared to L-Trp (in words)” value was “low levels of H2O2 production”. Besides, the “Oxidation Potential (anodic peak)” value in data set [3] was determined as 0.580 V vs Ag/AgCl. Also, the “Effect on light-induced Fab oxidation (in words)” value in the data set with mAb1 [4] (setting [8]) is recorded as “reducing Fab oxidation to near control levels”.

As to `O=C(O)c1ccccc1O` [Salicylic Acid], the “Effect on AAPH-induced Fab oxidation (in words)” value with mAb1 [1] (AAPH 24 hours at 40° C.) was “almost no effect on Fab oxidation”. Also, in data set [2] (pH 5.5), the “(H2O2 produced by Compound)/(H2O2 produced by L-Trp)” value came to 0.03 and the “H2O2 production upon light exposure compared to L-Trp (in words)” value was “very little H2O2; also recorded: did not produce much H2O2”. The “Oxidation potential relative to L-Trp (in words)” value in data set [3] (cyclic voltammetry) is “higher oxidation potential than L-Trp”. For the same compound, in data set [3], the “Oxidation Potential (anodic peak)” value was determined as 1.080 V vs Ag/AgCl. In the data set with mAb1 [4] (setting [8]), the “Fc oxidation under light stress compared to no excipient control (in words)” value is “more Fc oxidation” and the “Fab oxidation increase over the control level (mAb1 Ref Mat)” value was found to be 8 fold.

Regarding `NCCc1c[nH]c2ccc(O)cc12` [Serotonin (5-Hydroxytryptamine), 5-hydroxytryptamine], in the data set on mAb1 [1], the “Fab (Trp residue) oxidation of mAb1” value is given as “about 2%”. The “(H2O2 produced by Compound)/(H2O2 produced by L-Trp)” value in data set [2] (setting [7]) is 0.03. In addition, the “H2O2 production upon light exposure compared to L-Trp (in words)” value in data set [2] (setting [9]) is “very little H2O2; also recorded: low levels of H2O2 production”. The “Oxidation Potential (anodic peak)” value in data set [3] is on record as 0.600 V vs Ag/AgCl. For the same compound, the “Effect on light-induced Fab oxidation (in words)” value with mAb1 [4] (setting [8]) is listed as “reducing Fab oxidation to near control levels”.

On to “mAb1: monoclonal anti-DR5 antibody, drozitumab (CAS number 912628-39-8), human monoclonal IgG1”, for which, in the data set with mAb1 [5], the “Oxidation in the Fab region of mAb1 over the control (in words)” value is recorded as “about four times the oxidation”. In the data set on mAb1 [6] (5 mg/mL mAb1, 8 h light at 250 W/m^2, L-Trp at 1 mM), the “Fab oxidation of mAb1” value worked out at 4%. For the same compound, the “Effect on Fc oxidation of mAb1 (in words)” value with mAb1 [6] (8 h light at 250 W/m^2, L-Met 10, 25, 50, 100 mM added to 1 mM L-Trp) is “only a minor increase in Fc oxidation”. In addition, in the data set on mAb1 [4] (16 hours of light at 250 W/m^2, no excipient), the “Increase in Fc oxidation over the control level” value is listed as 40%. In the data set on mAb1 [4] (setting [8]), the “Fab oxidation increase over the control level (mAb1 Ref Mat)” value worked out at 3.5 fold.
